Earlier results, collected in US10545073B2, “Method and instrument for extracting a component from a sample” (priority 2016, dated 2020).

| log P | SMILES |
| --- | --- |
| 1.23 | CNC(=C[N+](=O)[O-])NCCSCc1ccc(CN(C)C)o1 [Ranitidine] |
| 4.81 | CN[C@H]1CC[C@@H](c2ccc(Cl)c(Cl)c2)c2ccccc21 [Sertraline] |
| 0.01 | CC(C)(C)NCC(O)c1ccc(O)c(CO)c1 (stereo not shown) [Salbutamol] |
| 3.89 | Fc1ccc([C@@H]2CCNC[C@H]2COc2ccc3c(c2)OCO3)cc1 [Paroxetine] |
